# Measured values taken from patent publication US20090005348A1, “Compounds Having Cytokine Modulating Properties” (VITAL HEALTH SCIENCES PTY LTD, priority 2005, published 2009).
# Key:
# PAI-1 = PAI-1 activity in the plasma of hypercholesterolemic rabbits; format: in vivo, New Zealand albino rabbits; settings: TA at 300 mg/kg feed, 2% cholesterol diet, 4 weeks
# Source text: (§1) 47 female New Zealand albino rabbits were obtained at 4-8 weeks of age. They were divided into 7 treatment groups, which consisted of 5-10 animals per group. All the animals were placed on a vitamin E stripped diet, and all the diets contained 2% cholesterol except for the control group (which contained no cholesterol) for 4 weeks (containing the various TA or TPm treatments outlined below). [table] At the end of the treatment period the animals were sacrificed and the blood collected. The plasma was obtained from this blood and the levels of various markers of inflammation were determined and included: IL-1β, IL-6, IL-8, TNF, PAI-1, and CRP. Other markers of inflammation such as CD36 was determined from mRNA isolated from the aortas of the rabbits to determine expression levels.
# TNF = TNF level in the plasma of hypercholesterolemic rabbits; format: in vivo, New Zealand albino rabbits; settings: TA at 300 mg/kg feed, 2% cholesterol diet, 4 weeks
# Source text: as §1
# IL-1β = IL-1β level in the plasma of hypercholesterolemic rabbits; format: in vivo, New Zealand albino rabbits; settings: TA at 300 mg/kg feed, 2% cholesterol diet, 4 weeks
# Source text: as §1
# [1] = tested on: T cells from old (>22 months) C57BL mice; assay: T cell proliferation ([3H] thymidine, anti-CD3/anti-CD28), old mice; format: cell-based; settings: all the alpha-T treatments (12.5-100 μM), n=6, p<0.05, FIG. 8
# Procedure: T cells from young (4 to 6 months) and old (>22 months) C57BL mice were isolated and purified from splenocytes by negative selection using Pan T cell isolation kit from Miltenyi Biotech.
# The tocopherol phosphate mixture (alpha-TP) provided by Phosphagenics Limited was composed of approximately ⅔ mono-tocopheryl phosphate (MW 510.7) and ⅓ di-tocopheryl phosphate (MW 923.3), which makes the MW of the compound 598.0. Ethanol was used to dissolve the solid alpha-TP mixture to make a 107.52 mg/ml stock solution ([…]). 34 mg/ml alpha-tocopherol (alpha-T) in ethanol was used as a stock solution of alpha-T (79.06 mM). The solutions used for pre-incubation and incubation were prepared as follows: […]
# After pre-incubation, the cells were stimulated (2×10^5 cells/well) in triplicate in a round bottom 96-well plate with plate-bound anti-CD3 (5 μg/ml, anti-CD3e (145-2C11), Pharmingen Cat# 553058) and soluble anti-CD28 (2 μg/ml, final concentration, anti-CD28 (37.51), Pharmingen Cat# 553294) in RPMI medium containing 5% FBS (final concentration and same concentration of vehicle, alpha-tocopherol or alpha-tocopherol phosphate used in the pre-incubation. The cells were incubated at 35° C., 5% CO2 for 64 hours, then, pulsed with 0.5 μCi of [^3H] thymidine for 8 hours. The cells were harvested onto filter paper and proliferation was quantified as the amount of [^3H] […]
SMILES,plasma PAI-1 activity (PAI-1),plasma TNF (TNF),plasma IL-1β (IL-1β),T cell proliferation compared to vehicle [1]
"CC(=O)Oc1c(C)c(C)c2c(c1C)CCC(C)(CCC[C@H](C)CCC[C@H](C)CCCC(C)C)O2 (stereo partly shown) [TA, tocopherol acetate]",modest decreases,modest decreases,modest decreases,–
"Cc1c(C)c2c(c(C)c1O)CC[C@@](C)(CCC[C@H](C)CCC[C@H](C)CCCC(C)C)O2 [alpha-T, alpha-tocopherol]",–,–,–,significant increase in proliferation
